Assay results from US20130011392A1, “METHOD FOR ASSESSING THE ABILITY OF A PATIENT TO RESPOND TO OR BE SAFELY TREATED BY A NUCLEOSIDE ANALOG BASED-CHEMOTHERAPY” (Assistance Publique Hopitaux De Marseille, priority 2009, published 2013).
Where two headings read alike, the source gives them in different places.

Experiments:
[1] = Animal pharmacokinetics of gemcitabine; assay type: in vivo, swiss mice; conditions: for clearance: male, Swiss, mouse, plasma, intraperitoneal; for Gemcitabine exposure AUC0-60: gemcitabine 100 mg/kg intraperitoneally; for Increase in gemcitabine exposure in animals with inhibited CDA: inhibited CDA (THU) vs normal CDA
Method: (§1) Parent-drug and difluorodeoxyuridine (dFdU) metabolite concentrations in plasma were assayed by UV-HPLC, as described in the literature (10). Elimination rate of gemcitabine was evaluated through a compartmental analysis and a stochastic model, using a home-built algorithm (11). Mean metabolization ratio for gemcitabine was calculated as follows: dFdU (μg/ml)/gemcitabine (μg/ml)×100. Carcass weights were monitored. Drug-induced leucopenia was the marker for gemcitabine-related toxicity. Leucocytes count was performed on day-0, then day-2, day-5 and day-8 post injection using Flow Cytometry analysis.

[2] = system: leucocytes; test: Animal haematological toxicity monitoring (leucocytes count); assay type: in vivo, swiss mice; conditions: for Mean leucocytes count: day 5 after gemcitabine 100 mg/kg
Method: as §1

[3] = system: adult cancer patients; test: Treatment-related toxicities in adult cancer patients (NCI-CTC); assay type: in vivo, human
Excerpt: A total of 150 cancer patients (130 adults—Table 1 and 20 children—Table 2) hospitalized at La Timone University Hospital of Marseille, France, from January 2007 to December 2008, were enrolled in this retrospective, observational study. Written informed consent and local ethic committee approval were obtained prior to performing CDA testing. Patients were divided into 3 subsets: […] These patients were mostly treated for pancreatic (n=40 patients) or gynaecological (n=7 patients) cancers. Other tumour types included liver, lung, vesical, or other localizations. In patients with digestive cancers, gemcitabine was administered as a fixed-dose rate infusion, whereas other patients received a standard rapid infusion. […] Remaining patients were given various drug combinations including capecitabine, fluorouracil (5-FU), herceptin, navelbine, sorafenib, axatinib, and erlotinib. Gemcitabine was given either as a rapid infusion or at fixed-dose rate infusion, depending on tumor location, as described previously. Twenty patients were treated for vesical-urothelial cancers. Other tumour types were pancreatic (n=12 patients), breast (n=12 patients), gynaecological (n=12 patients), and other, including lung, head and neck, liver, and other localisations. Toxicities were graded following the standard National Cancer Institute-Common Toxicity Criteria guidelines. Toxicities of grade ≧3 were regarded as “severe”.

[4] = system: paediatric cancer patients; test: Treatment-related toxicities in children; assay type: in vivo, human
Excerpt: Subset 3: 20 patients (12 men/8 women; mean and SD age, 12±7 years) from the Pediatric Oncology Unit of La Timone University Hospital that had been previously treated with gemcitabine-based protocols had their CDA status phenotyped as well (Table 2). Most of these young patients were heavily pre-treated, and gemcitabine was mostly given as part of a Gemox protocol (n=14 patients), or associated with paclitaxel (n=3 patients) or with various other anticancer drugs (e.g.
carboplatine, liposomal doxorubicin) or dexamethasone. In children, mean gemcitabine dose was 1028±190 mg/m^2 (minimum, 600 mg/m^2 —maximum, 1400 mg/m^2). Tumour types were extremely heterogeneous and included osteosarcoma, medulloblastoma, Ewing's sarcoma, and Hodgkin's syndrome.
Toxicities were graded following the standard National Cancer Institute-Common Toxicity Criteria guidelines. Toxicities of grade ≧3 were regarded as “severe”. A toxic event was considered “early” when occurring […] the 1st or the 2nd day of the gemcitabine course, and was considered “late” when occurring after those days.

[5] = system: pancreatic cancers and other digestive localizations; test: Treatment efficacy in digestive cancer patients by CT imaging / CA19-9 at 3 months; assay type: in vivo, human; conditions: gemcitabine alone or combined
Method: A total of 40 adult patients (21 men/19 women; 61±11 years old) with mostly pancreatic cancers (n=36 patients) and other digestive localizations (n=4 patients) were included in this retrospective study. All patients had been treated with gemcitabine alone (n=23 patients), associated with oxaliplatin (n=7 patients), erlotinib (n=2 patients), capecitabine (n=1 patient) or other drugs, including molecules used in target therapies (n=7 patients). Mean gemcitabine dose was 980 mg/m^2 (minimum: 500 mg/m^2, maximum: 1250 mg/m^2). CDA activity was measured spectrophotometrically from serum samples. Search for three genetic mutations (79A>C, 435T>C and 208G>A) was additionally performed. The cut-off associated with CDA extensiveness (extensive CDA activity) was set at 6 U/mg (e.g., >25% of the mean value of the population). Treatment efficacy was evaluated 3 month after beginning of the chemotherapy by CT imaging, with or without additional monitoring of the CA19-9 tumor marker.

[6] = system: patients; conditions: cited from earlier work
[7] = extensive subset (CDA>6 U/mg, n=8)

Structure (SMILES): Nc1ccn([C@@H]2O[C@H](CO)[C@@H](O)C2(F)F)c(=O)n1 [gemcitabine, 2′-deoxy-2′,2′-difluorocytidine]
- clearance [1]: 3.25 mL/min/kg
- clearance ([1]; 100 mg/kg, mice, normal CDA): 12.6 mL/min/kg
- Decrease of gemcitabine clearance ([1]; mice with altered CDA function (THU) vs normal): 74%
- Gemcitabine exposure AUC0-60 ([1]; mice, inhibited CDA (THU pre-treatment)): 142 µg/mL/min
- Gemcitabine exposure AUC0-60 ([1]; mice, normal CDA): 54 µg/mL/min
- Increase in gemcitabine exposure in animals with inhibited CDA ([1]; mice): ~3 fold
- Increase in gemcitabine exposure in animals with inhibited CDA ([1]; mice, listed as Gemcitabine): 2.6 fold
- Outcome by day 8 ([2]; CDA-deficient mice (THU)): all animals were dead
- Decrease of leucocytes count ([2]; day 5, CDA-deficient mice (THU)): 65%
- Decrease of leucocytes count as compared with untreated animals ([2]; day 5, mice with normal CDA activity): 23%
- Mean leucocytes count ([2]; CDA-deficient mice (THU)): 1.5 G/L
- Mean leucocytes count ([2]; mice with normal CDA activity): 3.2 G/L
- Outcome by day 8 ([2]; mice with normal CDA activity): all animals spontaneously recovered from their toxicities
- Patients with severe side-effects ([3]; 66 extra-patients, gemcitabine in combination with another anticancer drug): 14%
- Patients with early severe toxicities ([3]; 130 adult patients, gemcitabine-containing protocol, after first or second administration): 12%
- Patients with early severe toxicities ([3]; Subset 1, gemcitabine alone, n=64): 11%
- Anemia grade 3/4, Early ([3]; Subset 1, monotherapy, n=64): 1 (1.6%) n (%)
- Anemia grade 3/4, Late ([3]; Subset 1, monotherapy, n=64): 1 (1.6%) n (%)
- Asthenia grade 3/4, Early ([3]; Subset 1, monotherapy, n=64): 1 (1.6%) n (%)
- Asthenia grade 3/4, Late ([3]; Subset 1, monotherapy, n=64): 1 (1.6%) n (%)
- Diarrhea grade 3/4, Early ([3]; Subset 1, monotherapy, n=64): 0 (0%) n (%)
- Diarrhea grade 3/4, Late ([3]; Subset 1, monotherapy, n=64): 1 (1.6%) n (%)
- Leucopenia grade 3/4, Early ([3]; Subset 1, monotherapy, n=64): 7 (11%) n (%)
- Leucopenia grade 3/4, Late ([3]; Subset 1, monotherapy, n=64): 10 (16%) n (%)
- Neutropenia grade 3/4, Early ([3]; Subset 1, monotherapy, n=64): 6 (9.6%) n (%)
- Neutropenia grade 3/4, Late ([3]; Subset 1, monotherapy, n=64): 8 (12.8%) n (%)
- Sepsis grade 3/4, Early ([3]; Subset 1, monotherapy, n=64): 3 (4.8%) n (%)
- Sepsis grade 3/4, Late ([3]; Subset 1, monotherapy, n=64): 0 (0%) n (%)
- Thrombopenia grade 3/4, Early ([3]; Subset 1, monotherapy, n=64): 2 (3.2%) n (%)
- Thrombopenia grade 3/4, Late ([3]; Subset 1, monotherapy, n=64): 2 (3.2%) n (%)
- Late/cumulative grade-3 anemia ([4]; Subset 3, 20 children): 20%
- Late/cumulative grade-3 neutropenia ([4]; Subset 3, 20 children): 20%
- Late/cumulative grade-3 thrombopenia ([4]; Subset 3, 20 children): 10%
- Early severe toxicities ([4]; Subset 3, 20 children, gemcitabine-based protocols): No early severe toxicities were observed
- Tolerance ([4]; children): well tolerated
- Non-responders with progressive disease [5, 7]: 75%
- Patients with controlled disease [5, 7]: 25%
- Patients with controlled disease ([5]; non-extensive subset (CDA<6 U/mg, n=32)): 84.5%
- Severe toxicities reported ([6]; gemcitabine given as a combination (polychemotherapy)): 15-30%
- Severe toxicities reported ([6]; gemcitabine monochemotherapy): 5-10%
